Measured values from US12098145B2 (Libra Therapeutics, Inc., priority 2022, dated 2024).
Where two headings read alike, the source gives them in different places.

Assays:
TRPML1 = target: T1, TRPML1 (Homo sapiens, UniProt Q9GZU1); assay: Cellular TRPML1 assay (FLIPR, GCaMP6f calcium read-out); format: cell-based
T1 construct: expressed in transfected cells; host or cells: HEK T-REx cells stably expressing GCaMP6f and TRPML1
Procedure, shortened: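 HEK T-REx cells stably expressing TRPML1 and GCaMP6f, seeded 24 h before in Optimem + 0.5% FBS. After ~10 min pre-incubation at room temperature, compounds in Ca2+-free Tyrode's buffer were injected on FLIPR Tetra (final DMSO 0.5%). Calcium fluorescence kinetics followed for 300 s.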

TFEB = TFEB translocation assay (TFEB reporter in U2OS cells, imaging); format: cell-based; settings: Homo sapiens; U2OS cell line with TFEB reporter, 2 hours incubation, nucleus to cytoplasm ratio, normalized to Torin-1; read-out: TFEB Translocation pEC50 (converted)
Description: Example B: TFEB Translocation Assay
Reporter TFEB: the reporter is fused to a sequence of monomeric red fluorescent protein.
The reporter TFEB have been stably expressed in U2OS cell line and used as read-out.
Experiments were performed in 384 MTP well format. Cells were seeded in 384-w at a density of 4000 cells/well in 20 μl/well complete growth medium without antibiotics. Twenty-four hours later, cells were treated with compounds and incubated for further 2 hours. Then the cells were imaged and assayed for the response to various compounds using the reporter for TFEB expressed in the cells as readout.
The experiments were performed in a 384-well format according to the following procedure: • 24 h after seeding, cell culture medium was carefully removed and replaced with 20 μl of Opti-MEM (30′ incubation at 37° C. before compound addition) • Then, cells were incubated with compounds diluted in Opti-MEM+0.015% Tween 80 at the desired concentration, with the reference molecule (agonist) Torin-1 at a top concentration of 1 μM (max signal), and with the other reference molecule (agonist) MLSA-5 at top concentration of 20 μM for 2 hours at 37° C. and 5% CO2. The final percentage of DMSO was 0.5% in all the conditions. • Staining of the nuclei was obtained by incubating the cells with 24 μM/well of Hoechst 3342 in standard Tyrode's buffer for 15 min at RT • Then the cells were fixed with PFA 4% for 30 min at RT • After three washes with standard Tyrode's buffer, samples were acquired by recording two fluorescence emission channels (DS-red and blue) at 20× magnification and with at least 3 fields of view per well in an Operetta CLS microscope (PerkinElmer). • Image analysis was performed by using Harmony software (PerkinElmer). The image analysis involved the following steps: flat-field illumination correction, nuclei segmentation, cytoplasm segmentation and calculation of intensity fluorescence in the cytosol and nuclei compartments. Measurements of signal intensity ratio (nucleus to cytoplasm) was used to obtain information on the effects of compounds on the TFEB translocation. • Data from image analysis measurements were finally loaded and analyzed for normalization and fitting procedures in Genedata Screener© software. Data Analysis
Feature: Mean translocation ratio (mean/well)
Data normalization: Stimulator—Neutral control
The GeneData Screener method we have used, normalizes the median of the Stimulator control wells (Torin-1) to 100% and the median of the Neutral control wells (DMSO) to 0% Activity[%]=100*(x−<Min>)/(<“Max”>−<Min>)

[1] = HEKT-REx/GCaMP6f/TRPML1 cells, FLIPR TETRA, kinetic response over 300 seconds, read-out: TRPML1 FLIPR pEC50 (converted)

T1 sequence (Q9GZU1 whole entry): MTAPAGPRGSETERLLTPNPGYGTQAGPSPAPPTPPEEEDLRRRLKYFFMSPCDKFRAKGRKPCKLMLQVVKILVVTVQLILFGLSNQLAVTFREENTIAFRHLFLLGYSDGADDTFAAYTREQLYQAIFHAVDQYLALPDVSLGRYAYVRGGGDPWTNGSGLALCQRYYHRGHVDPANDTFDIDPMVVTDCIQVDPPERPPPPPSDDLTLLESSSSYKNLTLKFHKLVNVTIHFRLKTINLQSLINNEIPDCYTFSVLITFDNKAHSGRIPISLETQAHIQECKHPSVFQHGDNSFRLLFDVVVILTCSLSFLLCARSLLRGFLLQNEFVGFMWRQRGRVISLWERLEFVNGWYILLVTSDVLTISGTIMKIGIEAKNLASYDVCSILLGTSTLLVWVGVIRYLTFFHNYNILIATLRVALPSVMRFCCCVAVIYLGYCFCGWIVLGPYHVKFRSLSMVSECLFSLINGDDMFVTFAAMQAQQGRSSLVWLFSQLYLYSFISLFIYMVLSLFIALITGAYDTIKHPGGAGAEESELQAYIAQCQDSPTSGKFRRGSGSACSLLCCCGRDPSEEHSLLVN

EC50 (TRPML1; [1]) [nM] | Structure (SMILES) | EC50 (TFEB) [nM] | EC50 (TRPML1) [nM]
1000 to 10000 | CC1(C)CCCC1Oc1ccc(NC(=O)c2nc(N3CCCC3)oc2CC(F)(F)F)cc1F (stereo not drawn) [Example 55, N-(4-((2,2-dimethylcyclopentyl)oxy)-3-fluorophenyl)-2-(pyrrolidin-1-yl)-5-(2,2,2-trifluoroethyl)oxazole-4-carboxamide] | 1000 to 10000 | –
1000 to 10000 | O=C(Nc1ccc(OC2CCCC2)c(F)c1)c1nc(N2CCC3(COC3)C2)oc1CC(F)(F)F [Example 64, N-(4-(cyclopentyloxy)-3-fluorophenyl)-2-(2-oxa-6-azaspiro[3.4]octan-6-yl)-5-(2,2,2-trifluoroethyl)oxazole-4-carboxamide] | 1000 to 10000 | –
10 to 1000 | O=C(Nc1ccc(OC2CCCCC2(F)F)c(F)c1)c1nc(N2CCC3(COC3)C2)oc1CC(F)(F)F (stereo not drawn) [Example 68, N-(4-((2,2-difluorocyclohexyl)oxy)-3-fluorophenyl)-2-(2-oxa-6-azaspiro[3.4]octan-6-yl)-5-(2,2,2-trifluoroethyl)oxazole-4-carboxamide] | 10 to 1000 | –
10 to 1000 | O=C(Nc1ccc(O[C@@H]2C[C@@H]3C[C@@H]3C2)c(F)c1)c1nc(N2CCC3(COC3)C2)oc1CC(F)(F)F [Example 73, N-(4-{cis-bicyclo[3.1.0]hexan-3-yloxy}-3-fluorophenyl)-2-{2-oxa-6-azaspiro[3.4]octan-6-yl}-5-(2,2,2-trifluoroethyl)oxazole-4-carboxamide] | 10 to 1000 | –
10 to 1000 | O=C(Nc1ccc(O[C@@H]2C[C@@H]3C[C@@H]3C2)c(F)c1)c1nc(N2CCCC2)oc1CC(F)(F)F [Example 74, N-(4-{cis-bicyclo[3.1.0]hexan-3-yloxy}-3-fluorophenyl)-2-(pyrrolidin-1-yl)-5-(2,2,2-trifluoroethyl)oxazole-4-carboxamide] | 10 to 1000 | –
10 to 1000 | O=C(Nc1ccc(O[C@@H]2C[C@@H]3C[C@@H]3C2)c(F)c1)c1nc(N2CCC3(CC3)C2)oc1CC(F)(F)F [Example 75, 2-{5-azaspiro[2.4]heptan-5-yl}-N-(4-{cis-bicyclo[3.1.0]hexan-3-yloxy}-3-fluorophenyl)-5-(2,2,2-trifluoroethyl)oxazole-4-carboxamide] | 10 to 1000 | –
10 to 1000 | O=C(Nc1ccc(OC2CCCCC2(F)F)c(F)c1)c1nc(N2CCCC2)oc1CC(F)(F)F (stereo not drawn) [Example 76, N-{4-[(2,2-difluorocyclohexyl)oxy]-3-fluorophenyl}-2-(pyrrolidin-1-yl)-5-(2,2,2-trifluoroethyl)oxazole-4-carboxamide] | 10 to 1000 | –
1000 to 10000 | O=C(Nc1ccc(N2CCC(F)(F)CC2)c(F)c1)c1nc(N2CC3(C2)CC(F)(F)C3)oc1CC(F)(F)F [Example 77, 2-{6,6-difluoro-2-azaspiro[3.3]heptan-2-yl}-N-[4-(4,4-difluoropiperidin-1-yl)-3-fluorophenyl]-5-(2,2,2-trifluoroethyl)oxazole-4-carboxamide] | 1000 to 10000 | –
1000 to 10000 | O=C(Nc1ccc(N2CCCCC2)c(C(F)(F)F)c1)c1nc(N2CC3(C2)CC(F)(F)C3)oc1CC(F)(F)F [Example 78, 2-{6,6-difluoro-2-azaspiro[3.3]heptan-2-yl}-N-[4-(piperidin-1-yl)-3-(trifluoromethyl)phenyl]-5-(2,2,2-trifluoroethyl)oxazole-4-carboxamide] | 1000 to 10000 | –
1000 to 10000 | CN(c1ccc(NC(=O)c2nc(N3CCCC3)oc2CC(F)(F)F)cc1F)C1CCCC1(F)F (stereo not drawn) [Example 82, N-{4-[(2,2-difluorocyclopentyl)(methyl)amino]-3-fluorophenyl}-2-(pyrrolidin-1-yl)-5-(2,2,2-trifluoroethyl)oxazole-4-carboxamide] | 10 to 1000 | –
– | O=C(Nc1ccc(N2C3CCCC2C3)c(F)c1)c1nc(N2CCCC2)oc1CC(F)(F)F [Example 83, N-(4-{6-azabicyclo[3.1.1]heptan-6-yl}-3-fluorophenyl)-2-(pyrrolidin-1-yl)-5-(2,2,2-trifluoroethyl)oxazole-4-carboxamide] | 10 to 1000 | 10 to 1000
1000 to 10000 | O=C(Nc1ccc(N2CCCCC2)c(O)c1)c1nc(N2CCCC2)oc1CC(F)(F)F [Example 84, N-(3-hydroxy-4-(piperidin-1-yl)phenyl)-2-(pyrrolidin-1-yl)-5-(2,2,2-trifluoroethyl)oxazole-4-carboxamide] | 10000 to 100000 | –
1000 to 10000 | Cc1oc(N2CCC3(COC3)C2)nc1C(=O)Nc1ccc(N2CCCCC2)c(F)c1 [Example 90, N-(3-fluoro-4-(piperidin-1-yl)phenyl)-5-methyl-2-(2-oxa-6-azaspiro[3.4]octan-6-yl)oxazole-4-carboxamide] | 1000 to 10000 | –
1000 to 10000 | Cc1oc(N2CCC3(CC3)C2)nc1C(=O)Nc1ccc(N2CCCCC2)c(F)c1 [Example 91, N-(3-fluoro-4-(piperidin-1-yl)phenyl)-5-methyl-2-(5-azaspiro[2.4]heptan-5-yl)oxazole-4-carboxamide] | 1000 to 10000 | –
10000 to 100000 | Cc1oc(N2CCC(CO)C2)nc1C(=O)Nc1ccc(N2CCCCC2)c(F)c1 (stereo not drawn) [Example 96, N-(3-fluoro-4-(piperidin-1-yl)phenyl)-2-(3-(hydroxymethyl)pyrrolidin-1-yl)-5-methyloxazole-4-carboxamide] | 10000 to 100000 | –
1000 to 10000 | CCOCc1oc(N2CCCC2)nc1C(=O)Nc1ccc(N2CCCCC2)c(F)c1 [Example 100, 5-(ethoxymethyl)-N-[3-fluoro-4-(piperidin-1-yl)phenyl]-2-(pyrrolidin-1-yl)oxazole-4-carboxamide] | 1000 to 10000 | –
1000 to 10000 | CC(C)OCc1oc(N2CCCC2)nc1C(=O)Nc1ccc(N2CCCCC2)c(F)c1 [Example 108, N-(3-fluoro-4-(piperidin-1-yl)phenyl)-5-(isopropoxymethyl)-2-(pyrrolidin-1-yl)oxazole-4-carboxamide] | 10 to 1000 | –
1000 to 10000 | CC(C)Cc1oc(N2CCCC2)nc1C(=O)Nc1ccc(OC2CCCC2(F)F)c(F)c1 (stereo not drawn) [Example 111, N-(4-((2,2-difluorocyclopentyl)oxy)-3-fluorophenyl)-5-isobutyl-2-(pyrrolidin-1-yl)oxazole-4-carboxamide] | 10 to 1000 | –
1000 to 10000 | Cc1oc(N2CCCC2)nc1C(=O)Nc1ccc(N2CCCCC2)c(F)c1 [Example 112, N-(3-fluoro-4-(piperidin-1-yl)phenyl)-5-methyl-2-(pyrrolidin-1-yl)oxazole-4-carboxamide] | 1000 to 10000 | –
10000 to 100000 | Cc1oc(N2CCOCC2)nc1C(=O)Nc1ccc(N2CCCCC2)c(F)c1 [Example 116, N-(3-fluoro-4-(piperidin-1-yl)phenyl)-5-methyl-2-morpholinooxazole-4-carboxamide] | 10000 to 100000 | –
10000 to 100000 | Cc1oc(-n2cccn2)nc1C(=O)Nc1ccc(N2CCCCC2)c(F)c1 [Example 118, N-(3-fluoro-4-(piperidin-1-yl)phenyl)-5-methyl-2-(1H-pyrazol-1-yl)oxazole-4-carboxamide] | 1000 to 10000 | –
1000 to 10000 | Cc1oc(N2CCCC2)nc1C(=O)Nc1ccc(OC2CCCC2)c(F)c1 [Example 120, N-(4-(cyclopentyloxy)-3-fluorophenyl)-5-methyl-2-(pyrrolidin-1-yl)oxazole-4-carboxamide] | 1000 to 10000 | –
10 to 1000 | COCC1(C)CN(c2nc(C(=O)Nc3cc(C)c(O[C@@H]4C[C@@H]5C[C@@H]5C4)c(F)c3)c(CC(F)(F)F)o2)C1 [Example 124, N-(4-(cis-bicyclo[3.1.0]hexan-3-yloxy)-3-fluoro-5-methylphenyl)-2-(3-(methoxymethyl)-3-methylazetidin-1-yl)-5-(2,2,2-trifluoroethyl)oxazole-4-carboxamide] | 10 to 1000 | –
10 to 1000 | CCC1(COC)CN(c2nc(C(=O)Nc3cc(C)c(O[C@@H]4C[C@@H]5C[C@@H]5C4)c(F)c3)c(CC(F)(F)F)o2)C1 [Example 125, N-(4-(cis-bicyclo[3.1.0]hexan-3-yloxy)-3-fluoro-5-methylphenyl)-2-(3-(methoxymethyl)-3-ethylazetidin-1-yl)-5-(2,2,2-trifluoroethyl)oxazole-4-carboxamide] | 10 to 1000 | –
